Measurements taken from US4473554A, “Bestatin-related compounds as immunopotentiator” (Zaidan Hojin Biseibutsu Kagaku Kenkyu Kai, priority 1982, dated 1984).
In brackets after ≈: the same amount, converted by molar mass.

Assays:
aminopeptidase B = biological target: T1, aminopeptidase B (Rattus norvegicus, UniProt O09175); assay: aminopeptidase B-inhibiting activity (modified Hopsu method, arginine β-naphthylamide substrate); type: biochemical; settings: 37° C., pH 7.0, 30 minutes
T1 sequence (O09175 1-650): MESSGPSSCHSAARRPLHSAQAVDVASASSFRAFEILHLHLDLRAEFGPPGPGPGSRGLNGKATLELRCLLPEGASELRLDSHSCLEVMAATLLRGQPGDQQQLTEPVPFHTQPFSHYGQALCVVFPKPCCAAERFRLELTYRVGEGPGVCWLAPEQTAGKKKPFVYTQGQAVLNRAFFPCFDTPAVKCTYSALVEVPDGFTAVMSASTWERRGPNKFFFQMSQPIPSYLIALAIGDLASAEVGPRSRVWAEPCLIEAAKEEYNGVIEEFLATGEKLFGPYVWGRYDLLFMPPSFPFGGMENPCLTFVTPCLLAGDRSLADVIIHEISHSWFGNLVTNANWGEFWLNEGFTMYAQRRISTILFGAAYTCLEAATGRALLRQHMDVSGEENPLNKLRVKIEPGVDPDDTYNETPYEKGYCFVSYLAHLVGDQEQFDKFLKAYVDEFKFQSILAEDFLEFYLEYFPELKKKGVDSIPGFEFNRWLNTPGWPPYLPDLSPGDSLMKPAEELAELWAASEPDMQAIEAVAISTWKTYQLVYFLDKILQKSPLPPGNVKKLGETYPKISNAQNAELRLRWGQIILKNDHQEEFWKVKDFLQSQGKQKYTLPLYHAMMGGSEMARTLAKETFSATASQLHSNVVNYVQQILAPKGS
Experimental: The aminopeptidase B-inhibiting activity was determined according to a modification of the method of V. K. Hopsu et al. described in the "Archives of Biochemistry and Biophysics" Vol. 114, 557 (1966). Thus, a mixture of 0.8 ml of 0.1 mM of (S)-arginine β-naphthylamide and 1.0 ml of 0.1M Tris-hydrochloride buffer (pH 7.0) was admixed with 0.7 ml of 0.1M Tris-hydrochloride buffer (pH 7.0) containing the test compound and then heated at 37° C. for 3 minutes. […] After the reaction at 37° C. for 30 minutes, the reaction solution was admixed with 0.6 ml of 0.1M acetate buffer (pH 4.2) containing 1.0 mg/ml of diazonium salt of o-aminoazotoluene (Garnet GBC) and 1.0% of a surfactant "Tween" 20 (a registered trademark) to stop the enzymatic reaction and then allowed to stand at ambient temperature for 15 minutes. After this, absorbance (a) at 525 nm of the reaction solution was measured by spectrophotometer. For the control, the above procedure was repeated without the test compound and the adsorbence (b) was measured. Percentages for inhibition to aminopeptidase B were calculated according to the equation: [formula] Inhibition percentages at various concentrations of the test compound were measured, and from the values of inhibition percentages measured 50% Inhibition Concentration (IC50) was evaluated.

[1] = system: D.T.H. response in mice immunized with sheep red blood cell (SRBC); assay: Delayed Type Hypersensitivity (D.T.H.) footpad test in mice immunized with SRBC, Example 2; type: in vivo, mouse; settings: CDF1 mice, control = 100
Experimental: This Example describes the tests for evaluation of the immunopotentiating activity of the new compound of this invention.
A suspension of 10^8 sheep red blood cells in 0.05 ml of physiological saline was subcutaneously injected at the time of immunization into the right hind footpad of each CDF1 -mouse under test (female, 8 weeks-aged, 5 mice in each group) to establish D.T.H. Simultaneously to the immunization, […] prepared by dissolving the test compound in physiological saline and then filtering the solution by a micropore filter (pore diameter: 0.22 micrometers). Four days later, 10^8 SRBC were subcutaneously injected into the left […] footpad of each test mouse for elicitation of the D.T.H. response. 24 Hours after the elicitating injection, the increased thickness of the left hind footpad was measured with calipers to estimate the degree of swelling in the footpad. The swelling degree is expressed in term of the values calculated by the equation: [formula] The degree of swelling serves to evaluate the degree of cell-mediated immunity involved. For comparison, a suspension of bestatin dispersed in water was tested in the same way as above.

[2] = system: D.T.H. response in tumor-bearing (Sarcoma 180) mice immunized with SRBC; assay: D.T.H. footpad test in Sarcoma 180 tumor-bearing mice immunized with SRBC, Example 23; type: in vivo, mouse; settings: Sarcoma 180-bearing CDF1 mice
Experimental: This Example describes the tests for evaluation of the immunopotentiating activity of the new compound of this invention. Thus, the effect of the new compound of cell-mediated immunity was tested according to a known technique of Delayed Type Hypersensitivity (D.T.H.) (see P. H. Lagrange et al. "J. Exp. Med." Vol. 139, 1529-1539 (1974)) using tumor-bearing mice which had been immunized with sheep red blood cell (SRBC) as antigen as inoculated into the footpad of the mice.
Thus, a suspension of 10^8 sheep red blood cells in 0.05 ml of physiological saline was subcutaneously injected at the time of immunization into the right hind footpad of each CDF1 -mouse under test (female, 8 weeks-aged, 6 mice in each group) to which 10^6 cells of the tumor cell, Sarcoma 180 had been inoculated intraperitoneally.
On the same day as the day when the immunization with SRBC was effected, as well as on the subsequent, consecutive four days, the mouse under test were then treated by intraperitoneal administration of 0.05 mg/kg, 0.5 mg/kg or 5 mg/kg per day of the test compound as the solution which was prepared by dissolving the test compound in physiological saline and then filtering the solution by a micropore filter (pore diameter: 0.22 micrometers). Two days after the immunization with SRBC, 10^8 SRBC were subcutaneously injected into the left hind footpad of each test mouse for elicitation of the D.T.H. responde. 24 Hours after the elicitating injection, the increased thickness of the left hind footpad was measured with calipers to estimate the degree of swelling in the footpad. The swelling degree is expressed in term of the values calculated by the equation: [formula] The degree of swelling serves to evaluate the degree of cell-mediated immunity involved. For comparison, a suspension of bestatin dispersed in water was tested in the same way as above.

ICR-strain mice = assay: acute toxicity, intraperitoneal, ICR-strain mice; type: in vivo, mouse; settings: dosage of 100 mg/kg
Text: In order to estimate the acute toxicity of the compound of the formula (VIII) or (IIId), some of the test compound was intraperitoneally given to ICR-strain mice (in groups each consisting of 6 mice, male, 5 weeks-aged, average body weight 20 g.), when all the tested mice tolerated intraperitoneal administration of (2S,3R)-APHA; (2S)-2-N-[(2'S,3'R)-3'-amino-2'-hydroxy-4'-phenyl-butanoyl]amino-4-methyl- pentanol; (2S)-2-N-[(2'S,3'R)-3'-amino-2'-hydroxy-4'-phenylbutanoyl-(S)-leucyl]amino-4-methyl-pentanol; (2S,3R)-3-amino-2-hydroxy-4-phenylbutanoyl-(S)-leucyl-(S)-leucine; (2S,3R)-3-amino-2-hydroxy-4-phenyl-butanoyl-(S)-leucyl-(S)-arginine; (2S,3R)-3-amino-2-hydroxy-4-phenylbutanoyl-(S)-leucyl-(S)-asparagine; (2R,3R)-3-amino-2-hydroxy-4-phenylbutanoyl-(S)-leucyl-(R)-asparagine; and (2S,3R)-3-amino-2-hydroxy-4-phenylbutanoyl-(S)-leucyl-(R)-arginine at a dosage of 100 mg/kg.

[3] = system: D.T.H. response in mice immunized with SRBC as antigen; assay: D.T.H. footpad test in mice immunized with SRBC, Examples 3-6 (dosages per mouse); type: in vivo; settings: for Degree of swelling: control = 100
Experimental: The effect of (2S,3R)-AHPA on cell-mediated immunity was tested in the same way in Example 2, namely according to the D.T.H. technique using mice immunized with sheep red blood cell as antigen. Thus, a suspension of 10^8 sheep red blood cells in 0.05 ml of physiological saline were subcutaneously injected at the time of immunization into the right hind footpad of each CDF1 -mouse under test (female, 8 weeks-aged, 5 mice in each group) to establish D.T.H. […] The degree of swelling was evaluated. By way of comparison, bestatin was tested in the same way as above. […] The effect of (2S,3R)-AHPA on the D.T.H. response was estimated in the same manner as in the above procedure (A) of Example 3 by orally administering 1 mcg/mouse, 0.1 mcg/mouse or 0.01 mcg/mouse of (2S,3R)-AHPA to each mouse under test. […] The effect of the mode of administering (2S,3R)-AHPA on the D.T.H. response was estimated in the same manner as in the procedure (A) of Example 3, except that the test compound (as aqueous solution) was injected intraperitoneally in stead of being given orally.

## CC(C)C[C@H](NC(=O)[C@@H](O)[C@H](N)Cc1ccccc1)C(=O)N[C@@H](CCCNC(=N)N)C(=O)O [Compound No. 5, (2S,3R)-3-amino-2-hydroxy-4-phenyl-butanoyl-(S)-leucyl-(S)-arginine]
Aminopeptidase B
  IC50: 0.11 µg/mL (≈ 0.237 µM)
[1]; oral 0.5 mg/kg at immunization
  Degree of swelling: 135%
[2]; intraperitoneal 5 mg/kg/day
  Degree of swelling: 147%
Solubility in water
  solubility in water: soluble in water

## CC(C)C[C@H](NC(=O)[C@H](CC(C)C)NC(=O)[C@@H](O)[C@H](N)Cc1ccccc1)C(=O)O [Compound No. 6, (2S,3R)-3-amino-2-hydroxy-4-phenylbutanoyl-(S)-leucyl-(S)-leucine]
Aminopeptidase B
  IC50: 0.20 µg/mL (≈ 0.474 µM)
[1]; oral 0.5 mg/kg at immunization
  Degree of swelling: 120%
[2]; intraperitoneal 0.5 mg/kg/day
  Degree of swelling: 152%

## CC(C)C[C@H](NC(=O)[C@@H](O)[C@H](N)Cc1ccccc1)C(=O)N[C@@H](CC(N)=O)C(=O)O [Compound No. 11, (2S,3R)-3-amino-2-hydroxy-4-phenylbutanoyl-(S)-leucyl-(S)-asparagine]
Aminopeptidase B
  IC50: 22.4 µg/mL (≈ 53 µM)
[1]; oral 0.5 mg/kg at immunization
  Degree of swelling: 128%
[2]; intraperitoneal 0.05 mg/kg/day
  Degree of swelling: 155%

## CC(C)C[C@H](NC(=O)[C@@H](O)[C@H](N)Cc1ccccc1)C(=O)N[C@H](CCCNC(=N)N)C(=O)O [Compound No. 10]
Aminopeptidase B
  IC50: 0.39 µg/mL (≈ 0.839 µM)
[1]; oral 0.5 mg/kg at immunization
  Degree of swelling: 134%
[2]; intraperitoneal 0.5 mg/kg/day
  Degree of swelling: 155%
ICR-strain mice
  acute toxicity: tolerance of intraperitoneal administration: tolerated

## CC(C)C[C@H](NC(=O)[C@@H](O)[C@H](N)Cc1ccccc1)C(=O)N[C@H](CC(N)=O)C(=O)O [Compound No. 12, (2S,3R)-3-amino-2-hydroxy-4-phenylbutanoyl-(S)-leucyl-(R)-asparagine]
Aminopeptidase B
  IC50: 4.7 µg/mL (≈ 11.1 µM)
[1]; oral 0.5 mg/kg at immunization
  Degree of swelling: 133%
[2]; intraperitoneal 0.5 mg/kg/day
  Degree of swelling: 157%
ICR-strain mice
  acute toxicity: tolerance of intraperitoneal administration: tolerated

## CC(C)C[C@H](NC(=O)[C@@H](O)[C@H](N)Cc1ccccc1)C(=O)O [Bestatin, (2S, 3R)-3-amino-2-hydroxy-4-phenylbutanoyl-(S)-leucine]
Aminopeptidase B
  IC50: 0.03 µg/mL (≈ 0.0973 µM)
[1]; oral 0.05 mg/kg at immunization
  Degree of swelling: 120-130%
[1]; oral 0.5 mg/kg at immunization
  Degree of swelling: 140-150%
[3]; Table 3, oral 0.1 mcg/mouse
  Increase in thickness of footpad (± S.D.): 9.3 ± 2.70 × 0.1 mm
  Degree of swelling: 118%
[3]; Table 3, oral 1 mcg/mouse
  Increase in thickness of footpad (± S.D.): 10.3 ± 0.96 × 0.1 mm
  Degree of swelling: 130%
[3]; Table 3, oral 10 mcg/mouse
  Increase in thickness of footpad (± S.D.): 12.0 ± 1.25 × 0.1 mm
  Degree of swelling: 152%
[3]; Table 4, oral 1 mcg/mouse
  Increase in thickness of footpad (± S.D.): 10.8 ± 1.08 × 0.1 mm
  Degree of swelling: 133%
[3]; Table 5, intraperitoneal 1 mcg/mouse
  Degree of swelling, Intraperitoneal injection: 128%
[3]; Table 5, oral 1 mcg/mouse
  Degree of swelling, Oral administration: 133%
[3]; Table 7, oral 1 mcg/mouse
  Increase in thickness of footpad (± S.D.): 11.6 ± 0.91 × 0.1 mm
  Degree of swelling: 133%
[3]; Table 8, oral 1 mcg/mouse
  Increase in thickness of footpad (+ S.D.): 10.3 ± 1.36 × 0.1 mm
  Degree of swelling: 121%
[2]; intraperitoneal 5 mg/kg/day
  Degree of swelling: 130%
Solubility in water
  solubility in water: sparingly soluble in water
